According to patent US20090192153A1, “NOVEL ADENINE COMPOUND” (priority 2005, published 2009):

What follows are compounds tested against T1, human TLR7 (Homo sapiens, UniProt Q9NYK1) (assay: Human TLR7 reporter assay (NF-kB-SEAP in HEK293 cells)). Conditions: HEK293 cells stably carrying human TLR7 plasmid and NF-kB-SEAP reporter plasmid; 20 hours culture; final concentration 1 nM-10 μM; absorbance 405 nm; read-out: Human TLR7 binding activity (EC50).
T1 construct: expressed in transfected cells; host or cells: HEK293 (hTLR7/seap-293), stably transfected
T1 sequence (Q9NYK1 27-1049): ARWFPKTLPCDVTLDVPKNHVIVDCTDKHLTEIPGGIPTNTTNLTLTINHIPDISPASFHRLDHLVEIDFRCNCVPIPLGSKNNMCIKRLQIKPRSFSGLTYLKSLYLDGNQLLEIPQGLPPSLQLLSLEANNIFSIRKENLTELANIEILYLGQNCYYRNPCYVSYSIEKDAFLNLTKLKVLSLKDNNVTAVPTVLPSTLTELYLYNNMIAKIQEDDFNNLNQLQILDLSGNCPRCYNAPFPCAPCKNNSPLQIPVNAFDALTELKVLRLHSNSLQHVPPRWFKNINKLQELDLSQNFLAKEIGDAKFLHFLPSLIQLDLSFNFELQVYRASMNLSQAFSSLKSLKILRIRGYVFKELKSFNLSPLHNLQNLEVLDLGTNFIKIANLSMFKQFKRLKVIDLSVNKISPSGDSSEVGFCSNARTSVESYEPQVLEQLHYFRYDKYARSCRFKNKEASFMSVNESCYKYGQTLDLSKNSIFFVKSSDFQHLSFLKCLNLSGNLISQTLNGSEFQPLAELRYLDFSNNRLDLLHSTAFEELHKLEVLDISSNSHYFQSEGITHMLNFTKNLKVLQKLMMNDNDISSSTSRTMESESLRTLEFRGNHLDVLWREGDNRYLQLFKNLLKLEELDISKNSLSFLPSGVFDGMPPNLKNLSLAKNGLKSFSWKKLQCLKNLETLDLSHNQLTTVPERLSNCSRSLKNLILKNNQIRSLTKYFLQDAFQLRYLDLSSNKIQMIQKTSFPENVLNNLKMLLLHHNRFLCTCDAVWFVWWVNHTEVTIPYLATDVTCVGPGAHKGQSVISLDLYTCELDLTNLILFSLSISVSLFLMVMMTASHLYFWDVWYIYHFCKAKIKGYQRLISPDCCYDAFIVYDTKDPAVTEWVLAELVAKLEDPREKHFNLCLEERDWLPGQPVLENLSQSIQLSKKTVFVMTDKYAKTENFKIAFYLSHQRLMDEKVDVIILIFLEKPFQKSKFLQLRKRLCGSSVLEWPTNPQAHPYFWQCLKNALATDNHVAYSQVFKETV
Format: cell-based
Protocol: Human TLR7 Reporter Assay
HEK293 cells in which human TLR7 or rat TLR7 plasmid and reporter plasmid (NF-kB-SEAP) are stably introduced are dispersed in DMEM broth (10% FBS, 1% NEAA, 10 ug/mL blastocidin S HCl, 100 ug/mL Zeocin), and were seeded to 96 well plate per 90 μl/well (hTLR7/seap-293:20000 cells/well, rTLR7/seap-293:25000 cells/well).
Test compound (DMSO stock solution (2 μl) was diluted with the broth (200 μl) by 100 times) was added to the seeded cells to a 96 well plate (10 μl/well) (final concentration; 1 nM-10 μM, common ratio 3). After stirring by tapping side of the plate, the cells were cultured in a CO2 incubator for 20 hours. A substrate (50 μl/well) for reporter assay (substrate for SEAP, pNPP) was added to cells stimulated by test sample. Ten minutes after adding the substrate, the reaction quenching solution (4N NaOH) was added by 50 μl/well to cease enzymatic reaction. Sealing a top seal A on the plate, the absorbance was measured by a micro plate reader (405 nm).

First: CCCCOc1nc(N)c2[nH]c(=O)n(CCCCCN3CCC(C(=O)OC)CC3)c2n1 [Example 1, 2-Butoxy-7,8-dihydro-9-[5-(4-methoxycarbonylpiperidin-1-yl)pentyl]-8-oxoadenine]
Second: CCCCOc1nc(N)c2[nH]c(=O)n(CCCCCCN3CCC(C(=O)OC)CC3)c2n1 [Example 15, 2-Butoxy-7,8-dihydro-9-[6-(4-methoxycarbonylpiperidin-1-yl)hexyl]-8-oxoadenine]
The EC50 of the first is 1.5-fold higher: 145 nM for the first, 95.2 nM for the second. The second is the more potent here.

First: CCCCOc1nc(N)c2[nH]c(=O)n(CCCCCN3CCCC(CC(=O)OC)C3)c2n1 (stereo not drawn) [Example 3, 2-Butoxy-7,8-dihydro-9-[5-(3-methoxycarbonylmethylpiperidin-1-yl)pentyl]-8-oxoadenine]
Second: CCCCOc1nc(N)c2[nH]c(=O)n(CCCN3CCCC(CC(=O)OC)C3)c2n1 (stereo not drawn) [Example 12, 2-Butoxy-7,8-dihydro-9-{3-[3-(2-methoxy-2-oxoethyl)piperidin-1-yl]propyl}-8-oxoadenine]
The EC50 of the first is 2.8-fold lower: 571 nM for the first, 1610 nM for the second. The first is the more potent here.

CCCCOc1nc(N)c2[nH]c(=O)n(CCN3CCCC(C(=O)OC)C3)c2n1 (stereo not drawn) [Example 5, 2-Butoxy-7,8-dihydro-9-[2-(3-methoxycarbonylpiperidin-1-yl)ethyl]-8-oxoadenine] and CCCCOc1nc(N)c2[nH]c(=O)n(CCCN3CCCC(C(=O)OC)C3)c2n1 (stereo not drawn) [Example 9, 2-Butoxy-7,8-dihydro-9-[3-(3-methoxycarbonylpiperidin-1-yl)propyl]-8-oxoadenine] are within 1.5-fold of each other in EC50: 807 nM for the first, 989 nM for the second.

CCCCOc1nc(N)c2[nH]c(=O)n(CCN3CCN(CCC(=O)OC)CC3)c2n1 [Example 7, 2-Butoxy-7,8-dihydro-9-[2-{4-(2-methoxycarbonylethyl)piperazin-1-yl}ethyl]-8-oxoadenine] and CCCCOc1nc(N)c2[nH]c(=O)n(CCCN3CCC(CC(=O)OC)CC3)c2n1 [Example 11, 2-Butoxy-7,8-dihydro-9-{3-[4-(2-methoxy-2-oxoethyl)piperidin-1-yl]propyl}-8-oxoadenine] are within 1.5-fold of each other in EC50: 4790 nM for the first, 3240 nM for the second.

Compared with CCCCOc1nc(N)c2[nH]c(=O)n(CCCN3CCC(C(=O)OC)CC3)c2n1 [Example 8, 2-Butoxy-7,8-dihydro-9-[3-(4-methoxycarbonylpiperidin-1-yl)propyl]-8-oxoadenine], CCCCOc1nc(N)c2[nH]c(=O)n(CCCCCCCN3CCC(C(=O)OC)CC3)c2n1 [Example 16] is 8.5-fold lower in EC50: 1230 nM for the first, 145 nM for the second. The second is the more potent here.

Going from CCCCOc1nc(N)c2[nH]c(=O)n(CCCCCCCCN3CCC(C(=O)OC)CC3)c2n1 [Example 17, 2-Butoxy-7,8-dihydro-9-[8-(4-methoxycarbonylpiperidin-1-yl)octyl]-8-oxoadenine] to CCCCOc1nc(N)c2[nH]c(=O)n(CCCCN3CCCC(C(=O)OC)C3)c2n1 (stereo not drawn) [Example 19, 2-Butoxy-7,8-dihydro-9-[4-(3-methoxycarbonylpiperidin-1-yl)butyl]-8-oxoadenine], the EC50 rises from 148 nM to 631 nM (4.3-fold). The first is the more potent here.
